A value given as a limit tells only on which side of the number the result lay.

The text below walks through data of patent US9115127B2 (AMGEN INC., priority 2010, dated 2015).

T1 sequence (Q9UM73 1058-1620): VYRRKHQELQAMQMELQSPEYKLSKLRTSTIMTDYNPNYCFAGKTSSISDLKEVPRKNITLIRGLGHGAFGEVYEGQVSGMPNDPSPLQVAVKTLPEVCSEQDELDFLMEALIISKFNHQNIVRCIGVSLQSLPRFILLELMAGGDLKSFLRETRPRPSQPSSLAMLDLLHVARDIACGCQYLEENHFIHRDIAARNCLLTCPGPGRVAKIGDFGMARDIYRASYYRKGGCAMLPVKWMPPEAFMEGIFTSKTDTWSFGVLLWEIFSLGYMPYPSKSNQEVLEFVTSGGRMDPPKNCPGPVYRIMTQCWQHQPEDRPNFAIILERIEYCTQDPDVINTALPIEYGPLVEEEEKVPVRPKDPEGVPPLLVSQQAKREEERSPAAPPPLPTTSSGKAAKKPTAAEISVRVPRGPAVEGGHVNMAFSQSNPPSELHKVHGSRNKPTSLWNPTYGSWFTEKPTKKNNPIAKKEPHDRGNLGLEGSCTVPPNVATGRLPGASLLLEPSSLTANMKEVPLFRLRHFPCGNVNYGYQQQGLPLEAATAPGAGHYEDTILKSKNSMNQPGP

This test concerns the target T1, wild-type human ALK (cytoplasmic domain, amino acids 1058-1620, N-terminal GST fusion) (Homo sapiens, UniProt Q9UM73).
T1 construct: The cytoplasmic domain (amino acids 1058-1620) of wild-type human ALK; GST (N); made in house; host or cells: SF9 insect cells
Kind of test: ALK Inhibition in Enzyme Assay (Lance TR-FRET kinase assay). Format: biochemical. A digest of the protocol: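 TR-FRET read-out (Eu-W1024 PT66 anti-phosphotyrosine plus streptavidin-allophycocyanin, 320 nm excitation) quantified biotinylated peptide phosphorylation by the purified kinase. Reaction ran 90 minutes at room temperature before quenching with 20 mM EDTA in Tris pH 7.5 buffer with NaCl, BSA and Tween-20.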
In general terms: TR-FRET usually uses a lanthanide donor and a delayed reading to cut background.
What is called IC50 is the concentration that gives 50% inhibition. Low values mean inhibition by little substance, high ones a need for much substance. For `CC(C)NC[C@H]1CC[C@@H](n2/c(=N/C(=O)c3ccc(F)cc3)[nH]c3ccc(CN4CCCCC4)cc32)CC1` [Example 36, (E)-4-Fluoro-N-(1-(cis-4-((isopropylamino)methyl)cyclohexyl)-6-(piperidin-1-ylmethyl)-1H-benzo[d]imidazol-2(3H)-ylidene)benzamide], the IC50 lay in the range of 100 to 1000 nM.
To `NC(=O)[C@]1(c2cccc(Br)c2)C[C@@H](n2/c(=N/C(=O)c3ccc(F)cc3)[nH]c3cnc(OCCN4CCCCC4)cc32)C1` [Example 251, (E)-N-(1-(trans-3-(3-Bromophenyl)-3-carbamoylcyclobutyl)-6-(2-(piperidin-1-yl)ethoxy)-1H-imidazo[4,5-c]pyridin-2(3H)-ylidene)-4-fluorobenzamide] belongs 50 to 100 nM; to `NC(=O)[C@H]1CC[C@H](n2/c(=N/C(=O)c3ccc(F)cc3)[nH]c3cnc(OCCN4CCCCC4)cc32)CC1` [Example 248, (E)-N-(1-(trans-4-Carbamoylcyclohexyl)-6-(2-(piperidin-1-yl)ethoxy)-1H-imidazo[4,5-c]pyridin-2(3H)-ylidene)-4-fluorobenzamide], 1000 to 5000 nM.
The figure for `C[C@H](CO)NC(=O)[C@H]1CC[C@@H](n2/c(=N/C(=O)c3ccc(F)cc3)[nH]c3ccc(CN4CCOCC4)cc32)CC1` [Example 200, (E)-4-Fluoro-N-(1-(cis-4-((R)-1-hydroxypropan-2-ylcarbamoyl)cyclohexyl)-6-(morpholinomethyl)-1H-benzo[d]imidazol-2(3H)-ylidene)benzamide] is < 50 nM; for `CC(C)NC(=O)[C@H]1CC[C@@H](n2/c(=N/C(=O)c3ccc(F)cc3)[nH]c3cnc(OCCN4CCCCC4)cc32)CC1` [Example 45, (E)-4-Fluoro-N-(1-(cis-4-(isopropylcarbamoyl)cyclohexyl)-6-(2-(piperidin-1-yl)ethoxy)-1H-imidazo[4,5-c]pyridin-2(3H)-ylidene)benzamide] it is < 50 nM; for `CC(C)NC(=O)[C@H]1CC[C@@H](n2/c(=N/C(=O)c3ccc(F)c(C(F)(F)F)c3)[nH]c3ccc(CN4CCC(C(C)(C)O)CC4)cc32)CC1` [Example 148, (E)-4-Fluoro-N-(6-((4-(2-hydroxypropan-2-yl)piperidin-1-yl)methyl)-1-(cis-4-(isopropylcarbamoyl)cyclohexyl)-1H-benzo[d]imidazol-2(3H)-ylidene)-3-(trifluoromethyl)benzamide] it is < 50 nM.
For `COC(=O)[C@H]1CC[C@@H](n2c(NC(=O)c3ccccc3)nc3ccc(CN4CCOCC4)cc32)CC1` [Example 5, cis-Methyl 4-(2-benzamido-6-(morpholinomethyl)-1H-benzo[d]imidazol-1-yl)cyclohexanecarboxylate], the IC50 was < 50 nM.
The figure for `CCOC(=O)[C@H]1CC[C@@H](n2c(NC(=O)c3ccc(F)cc3)nc3ccc(CO)cc32)CC1` [Example 6, cis-Ethyl 4-(2-(4-fluorobenzamido)-6-(hydroxymethyl)-1H-benzo[D]imidazol-1-yl)cyclohexanecarboxylate] is < 50 nM.
Turning to `CC(C)NC(=O)[C@H]1CC[C@@H](n2/c(=N/C(=O)c3ccc(F)c(Cl)c3)[nH]c3cnc(OCCN4CCCCC4)cc32)CC1` [Example 101, (E)-3-Chloro-4-fluoro-N-(1-(cis-4-(isopropylcarbamoyl)cyclohexyl)-6-(2-(piperidin-1-yl)ethoxy)-1H-imidazo[4,5-c]pyridin-2(3H)-ylidene)benzamide], the IC50 is < 50 nM.
The figure for `CCS(=O)(=O)N1CCC(n2/c(=N/C(=O)c3ccccc3)[nH]c3cnc(OCCN4CCCCC4)cc32)CC1` [Example 66, (E)-N-(1-(1-(Ethylsulfonyl)piperidin-4-yl)-6-(2-(piperidin-1-yl)ethoxy)-1H-imidazo[4,5-c]pyridin-2(3H)-ylidene)benzamide] is 100 to 1000 nM.
Regarding `CC(C)(O)C1CCN(Cc2ccc3[nH]/c(=N\C(=O)c4ccc(F)cc4)n([C@H]4CC[C@@H](C(=O)N5CCCCC5)CC4)c3c2)CC1` [Example 216, (E)-4-Fluoro-N-(6-((4-(2-hydroxypropan-2-yl)piperidin-1-yl)methyl)-1-(cis-4-(piperidine-1-carbonyl)cyclohexyl)-1H-benzo[d]imidazol-2(3H)-ylidene)benzamide], the IC50 is < 50 nM.
The figure for `CC(C)NC(=O)[C@H]1CC[C@@H](n2/c(=N/C(=O)c3ccc(F)cc3)[nH]c3cnc(OCCN4CCOCC4)cc32)CC1` [Example 51, (E)-4-Fluoro-N-(1-(cis-4-(isopropylcarbamoyl)cyclohexyl)-6-(2-morpholinoethoxy)-1H-imidazo[4,5-c]pyridin-2(3H)-ylidene)benzamide] is < 50 nM; for `CC(C)(C)OC(=O)N1CCC(n2/c(=N/C(=O)c3ccccc3)[nH]c3cnc(OCCN4CCCCC4)cc32)CC1` [Example 64, (E)-tert-Butyl 4-(2-(benzoylimino)-6-(2-(piperidin-1-yl)ethoxy)-2,3-dihydro-1H-imidazo[4,5-c]pyridin-1-yl)piperidine-1-carboxylate] it is 100 to 1000 nM.
As for `CC(C)(O)C1CCN(Cc2ccc3[nH]/c(=N\C(=O)c4ccc(F)cc4)n([C@H]4CC[C@@H](C(N)=O)CC4)c3c2)CC1` [Example 212, (E)-N-(1-(cis-4-Carbamoylcyclohexyl)-6-((4-(2-hydroxypropan-2-yl)piperidin-1-yl)methyl)-1H-benzo[d]imidazol-2(3H)-ylidene)-4-fluorobenzamide], the IC50 was < 50 nM.
To `CC(C)CNC(=O)[C@H]1CC[C@@H](n2/c(=N/C(=O)c3ccc(F)cc3)[nH]c3ccc(CN4CCCCC4)cc32)CC1` [Example 35, (E)-4-Fluoro-N-(1-(cis-4-(isobutylcarbamoyl)cyclohexyl)-6-(piperidin-1-ylmethyl)-1H-benzo[d]imidazol-2(3H)-ylidene)benzamide] belongs < 50 nM; to `CC(C)NC(=O)[C@H]1CC[C@@H](n2/c(=N/C(=O)C3CCCCC3)[nH]c3cnc(OCCN4CCCCC4)cc32)CC1` [Example 112, cis-4-((E)-2-(Cyclohexanecarbonylimino)-6-(2-(piperidin-1-yl)ethoxy)-2,3-dihydro-1H-imidazo[4,5-c]pyridin-1-yl)-N-isopropylcyclohexanecarboxamide], 5000 to 10000 nM; to `NC(=O)[C@H]1CC[C@@H](n2/c(=N/C(=O)c3ccc(F)cc3)[nH]c3cnc(OCCN4CCCCC4)cc32)CC1` [Example 135, (E)-N-(1-(cis-4-Carbamoylcyclohexyl)-6-(2-(piperidin-1-yl)ethoxy)-1H-imidazo[4,5-c]pyridin-2(3H)-ylidene)-4-fluorobenzamide], < 50 nM.
The figure for `CC(C)NC(=O)[C@H]1CC[C@@H](n2/c(=N/C(=O)c3cncs3)[nH]c3cnc(OCCN4CCCCC4)cc32)CC1` [Example 88, (E)-N-(1-(cis-4-(Isopropylcarbamoyl)cyclohexyl)-6-(2-(piperidin-1-yl)ethoxy)-1H-imidazo[4,5-c]pyridin-2(3H)-ylidene)thiazole-5-carboxamide] is 50 to 100 nM; for `COC(=O)[C@H]1CC[C@@H](n2c(NC(=O)c3ccccc3)nc3ccc(CO)cc32)CC1` [Example 4, cis-Methyl 4-(2-benzamido-6-(hydroxymethyl)-1H-benzo[d]imidazol-1-yl)cyclohexanecarboxylate] it is < 50 nM.
To `CC(C)(CO)NC(=O)[C@H]1CC[C@@H](n2/c(=N/C(=O)c3ccc(F)cc3)[nH]c3ccc(CN4CCC(C(C)(C)O)CC4)cc32)CC1` [Example 214, (E)-4-Fluoro-N-(1-(cis-4-(1-hydroxy-2-methylpropan-2-ylcarbamoyl)cyclohexyl)-6-((4-(2-hydroxypropan-2-yl)piperidin-1-yl)methyl)-1H-benzo[d]imidazol-2(3H)-ylidene)benzamide] belongs < 50 nM.
`C=CCNS(=O)(=O)c1cc(C(=O)Nc2nc3ccc(CO)cc3n2[C@H]2CC[C@@H](C(=O)OC)CC2)ccc1F` [Example 27, cis-Methyl 4-(2-(3-(N-allylsulfamoyl)-4-fluorobenzamido)-6-(hydroxymethyl)-1H-benzo[d]imidazol-1-yl)cyclohexanecarboxylate] yielded an IC50 of 100 to 1000 nM.
To `CC(C)NC(=O)[C@H]1CC[C@@H](n2/c(=N/C(=O)c3ccc(F)cc3)[nH]c3ccc(CN4CCC(S(=O)(=O)O)CC4)cc32)CC1` [Example 181, 1-(((E)-2-(4-Fluorobenzoylimino)-3-(cis-4-(isopropylcarbamoyl)-cyclohexyl)-2,3-dihydro-1H-benzo[d]imidazol-5-yl)methyl)piperidine-4-sulfonic acid] belongs < 50 nM; to `N#Cc1ccc(C(=O)/N=c2\[nH]c3cnc(OCCN4CCCCC4)cc3n2[C@H]2CC[C@@H](C(=O)N3CCNCC3)CC2)cc1` [Example 123, (E)-4-Cyano-N-(1-(cis-4-(piperazine-1-carbonyl)cyclohexyl)-6-(2-(piperidin-1-yl)ethoxy)-1H-imidazo[4,5-c]pyridin-2(3H)-ylidene)benzamide], < 50 nM.
To `COC(=O)Nc1nc2ccc(CN3CCCCC3)cc2n1[C@H]1CC[C@@H](C(=O)NC(C)C)CC1` [Example 237, Methyl 1-(cis-4-(isopropylcarbamoyl)cyclohexyl)-6-(piperidin-1-ylmethyl)-1H-benzo[d]imidazol-2-ylcarbamate] belongs 100 to 1000 nM; to `CNS(=O)(=O)N1CCC(n2/c(=N/C(=O)c3ccccc3)[nH]c3cnc(OCCN4CCCCC4)cc32)CC1` [Example 67, (E)-N-(1-(1-(N-Methylsulfamoyl)piperidin-4-yl)-6-(2-(piperidin-1-yl)ethoxy)-1H-imidazo[4,5-c]pyridin-2(3H)-ylidene)benzamide], 100 to 1000 nM.
The figure for `CNC(=O)[C@H]1CC[C@H](n2/c(=N/C(=O)c3cc(F)cc(F)c3)[nH]c3cnc(OCCN4CCCCC4)cc32)CC1` [Example 249, (E)-3,5-Difluoro-N-(1-(trans-4-(methylcarbamoyl)cyclohexyl)-6-(2-(piperidin-1-yl)ethoxy)-1H-imidazo[4,5-c]pyridin-2(3H)-ylidene)benzamide] is 1000 to 5000 nM.
